Among the data in patent publication US10954214B2 (Janssen Pharmaceutica NV, priority 2016, dated 2021) are IC50 values, retold here.

Broadly, the IC50 is the point on the concentration scale where inhibition reaches its midpoint.

Assay [1] deals with full-length MALT1 protein (Strep-MALT1(1-824)-His) (Homo sapiens (Human), UniProt Q9UDY8). Briefly: MALT1 Biochemical Protease Assay (Ac-LRSR-AMC substrate). The following applies: 10 nM FL MALT1, 200 μM Ac-LRSR-AMC, 4 h at RT; read-out: MALT1_Biochemical activity (Ac-LRSR-amc) IC50. In short, it runs like this:
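Full-length MALT1 pre-incubated with compounds (30 μM to 0.5 nM, 11 threefold steps) for 50 min at RT. After Ac-LRSR-AMC was added, the reaction ran 4 h at RT and AMC fluorescence was read. IC50 and Hill slope from curve fitting against no-enzyme and no-compound controls.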

Assay [2] has as its system IL6 secretion by OCI-LY3 ABC-DLBCL cells. The experiment in a line: Human IL6 Mesoscale assay (OCI-LY3). The settings on record: Homo sapiens, 24 h. The class given is cell-based. As to the method:
(§1) NFKB signaling regulates the secretion of multiple cytokines, including IL6 and IL10. Secretion of the cytokines IL6 and IL10 by TMD8 or OCI-LY3 ABC-DLBCL cells was measured using a mesoscale assay. Inhibition of NFKB signaling by MALT1 or BTK inhibitors results in a decrease of IL6/10 secretion.
(§2) TMD8 or OCI-LY3 cells were propagated in RPMI-1640 (Sigma Aldrich) supplemented with 10% fetal bovine serum (HyClone), 1 mM sodium pyruvate (Invitrogen), 2 mM L-glutamine (Sigma Aldrich) and 1% PenStrep (Sigma Aldrich). Cell passage number should not exceed 30. Cells should be kept between 0.5-2.5 million cells per mL during culturing and cells should be supplemented every 2-3 days with fresh 50 μM beta-mercaptoenthanol. No beta-mercaptoethanol was used during the mesoscale assay.
(§3) For the Mesoscale assay, 100,000 TMD8 or OCI-LY3 cells were seeded per well into black-colored 96-well plates with clear bottom (Corning #3904) and test compounds were added in 9 dilution steps (1:2) ranging from 15 μM to 58.6 nM (final DMSO concentration 0.3%). DMSO control wells were used to determine the maximum signal (High Control (HC)). Treatment with the BTK inhibitor RN486 in a dose range from 30 nM to 131 pM (9 dilutions of 1:2) served as a positive control for NFKB pathway inhibition and was used to determine the maximum inhibition (Low Control (LC)). Compounds and cells were incubated for 24 h at 37° C. and 5% CO2 (assay volume is 150 μL). After 24 h of incubation 50 μL of the supernatant was transferred to a MSD plate (V-Plex Proinflammation Panel 1 (human) kit, Mesoscale (MSD)) and incubated for 2 h with vigorous shaking (600 rpm) at room temperature. Following incubation, plates were washed 3× with PBS+0.05% Tween-20 and 25 μL detection antibody solution (IL6 & IL10 antibodies in diluent 3 (MSD)) was added per well followed by 2 h of incubation with vigorous shaking (600 rpm) at room temperature. After 3× washes with PBS+0.05% Tween-20, plates were incubated with 150 μL 2× Read Buffer T and read on SECTOR imager.

The subject of assay [3] is IL10 secretion by OCI-LY3 ABC-DLBCL cells. The experiment in a line: Human IL10 Mesoscale assay (OCI-LY3). The class given is cell-based. The following applies: Homo sapiens, 24 h. As to the method: as §1, §2, §3

Bounds are passed on as bounds.

Sequence of full-length MALT1 protein (Strep-MALT1(1-824)-His) (Q9UDY8 whole entry): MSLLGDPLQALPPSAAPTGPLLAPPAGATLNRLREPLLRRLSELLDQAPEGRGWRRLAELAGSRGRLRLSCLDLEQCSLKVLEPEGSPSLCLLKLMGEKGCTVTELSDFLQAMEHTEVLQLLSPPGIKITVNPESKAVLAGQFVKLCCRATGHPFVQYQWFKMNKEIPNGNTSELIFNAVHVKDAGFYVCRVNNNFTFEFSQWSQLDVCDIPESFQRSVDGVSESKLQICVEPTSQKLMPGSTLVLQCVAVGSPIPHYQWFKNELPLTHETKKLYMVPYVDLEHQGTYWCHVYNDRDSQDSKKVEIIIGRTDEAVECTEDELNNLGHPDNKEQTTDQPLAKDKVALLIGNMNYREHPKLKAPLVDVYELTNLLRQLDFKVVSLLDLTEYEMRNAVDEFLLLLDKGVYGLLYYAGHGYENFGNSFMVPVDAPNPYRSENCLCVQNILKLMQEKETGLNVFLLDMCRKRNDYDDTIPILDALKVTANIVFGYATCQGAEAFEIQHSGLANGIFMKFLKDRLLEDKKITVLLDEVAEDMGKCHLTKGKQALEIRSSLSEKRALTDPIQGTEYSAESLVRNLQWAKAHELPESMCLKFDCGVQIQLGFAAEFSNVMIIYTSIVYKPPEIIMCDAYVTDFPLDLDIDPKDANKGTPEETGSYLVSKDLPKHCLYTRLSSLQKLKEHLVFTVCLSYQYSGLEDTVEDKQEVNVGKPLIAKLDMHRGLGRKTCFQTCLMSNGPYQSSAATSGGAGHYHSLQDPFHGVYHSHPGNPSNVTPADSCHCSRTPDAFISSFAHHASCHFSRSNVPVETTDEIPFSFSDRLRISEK

Take `Cc1nc2c(-n3ncc(C(=O)Nc4cnc(-n5nccn5)c(C#N)c4)c3C(F)(F)F)cccc2o1` [Cpd 219, N-(5-cyano-6-(2H-1,2,3-triazol-2-yl)pyridin-3-yl)-1-(2-methylbenzo[d]oxazol-4-yl)-5-(trifluoromethyl)-1H-pyrazole-4-carboxamide]: the IC50 in assay [1] is 2690 nM; in assay [2], 102 nM; in assay [3], 126 nM.
As to `Cc1cc2nccc(-n3ncc(C(=O)Nc4cnc(-n5nccn5)c(C#N)c4)c3C(F)(F)F)c2s1` [Cpd 232, N-(5-cyano-6-(2H-1,2,3-triazol-2-yl)pyridin-3-yl)-1-(2-methylthieno[3,2-b]pyridin-7-yl)-5-(trifluoromethyl)-1H-pyrazole-4-carboxamide], the IC50 in assay [1] came to 891 nM; in assay [2], 145 nM; in assay [3] it was 182 nM.
For the compound `O=C(Nc1cnc(-n2nccn2)c(Cl)c1)c1cnn(-c2cccc3cncn23)c1C(F)(F)F` [Cpd 233, N-(5-chloro-6-(2H-1,2,3-triazol-2-yl)pyridin-3-yl)-1-(imidazo[1,5-a]pyridin-5-yl)-5-(trifluoromethyl)-1H-pyrazole-4-carboxamide], the IC50 in assay [1] worked out at 871 nM; in assay [2], 331 nM; in assay [3], 240 nM.
In the same order, the values of `O=C(Nc1cnc(-n2nccn2)c(Cl)c1)c1cnn(-c2ccc3nccn3n2)c1C(F)(F)F` [Cpd 242, N-(5-chloro-6-(2H-1,2,3-triazol-2-yl)pyridin-3-yl)-1-(imidazo[1,2-b]pyridazin-6-yl)-5-(trifluoromethyl)-1H-pyrazole-4-carboxamide] are 437 nM, 65 nM and 54 nM.
For `NC(=O)c1cn(-c2ncc(NC(=O)c3cnn(-c4cccc5ncccc45)c3C(F)(F)F)cc2Cl)nn1` [Cpd 246, 1-(3-chloro-5-(1-(quinolin-5-yl)-5-(trifluoromethyl)-1H-pyrazole-4-carboxamido)pyridin-2-yl)-1H-1,2,3-triazole-4-carboxamide], the IC50 is 380 nM in assay [1], 135 nM in assay [2] and 63 nM in assay [3].
As for `N#Cc1cc(NC(=O)c2cnn(-c3ccnc4nccn34)c2C(F)(F)F)cnc1-n1nccn1` [Cpd 250, N-(5-cyano-6-(2H-1,2,3-triazol-2-yl)pyridin-3-yl)-1-(imidazo[1,2-a]pyrimidin-5-yl)-5-(trifluoromethyl)-1H-pyrazole-4-carboxamide], the concentration for half-maximal inhibition (IC50) in assay [1] was 316 nM; in assay [2], 269 nM; in assay [3], 407 nM.
For `COc1cc(NC(=O)c2cnn(-c3cccc4ncccc34)c2C(F)(F)F)cnc1-n1nccn1` [Cpd 251, N-(5-methoxy-6-(2H-1,2,3-triazol-2-yl)pyridin-3-yl)-1-(quinolin-5-yl)-5-(trifluoromethyl)-1H-pyrazole-4-carboxamide] the same measures were 302 nM, 2190 nM and 2240 nM.
As to `Cc1nc(-n2nccn2)c(Cl)cc1NC(=O)c1cnn(-c2cccc3scnc23)c1C(F)(F)F` [Cpd 252, 1-(benzo[d]thiazol-4-yl)-N-(5-chloro-2-methyl-6-(2H-1,2,3-triazol-2-yl)pyridin-3-yl)-5-(trifluoromethyl)-1H-pyrazole-4-carboxamide], the IC50 worked out at 282 nM in assay [1], 158 nM in assay [2] and 123 nM in assay [3].
For `COCc1cnnn1-c1ncc(NC(=O)c2cnn(-c3cccc4ncccc34)c2C(F)(F)F)cc1Cl` [Cpd 253, N-(5-chloro-6-(5-(methoxymethyl)-1H-1,2,3-triazol-1-yl)pyridin-3-yl)-1-(quinolin-5-yl)-5-(trifluoromethyl)-1H-pyrazole-4-carboxamide] the same measures were 282 nM, greater than 15100 nM and 12600 nM.
For `Cc1nc2cccc(-n3ncc(C(=O)Nc4cnc(-n5nccn5)c(C#N)c4)c3C(F)(F)F)n2n1` [Cpd 254, N-(5-cyano-6-(2H-1,2,3-triazol-2-yl)pyridin-3-yl)-1-(2-methyl-[1,2,4]triazolo[1,5-a]pyridin-5-yl)-5-(trifluoromethyl)-1H-pyrazole-4-carboxamide] the same measures were 282 nM, 81 nM and 79 nM.
For `Cn1nc(-c2ncc(NC(=O)c3cnn(-c4cccc5ncccc45)c3C(F)(F)F)cc2C#N)cc1C(=O)O` [Cpd 255, 3-(3-cyano-5-(1-(quinolin-5-yl)-5-(trifluoromethyl)-1H-pyrazole-4-carboxamido)pyridin-2-yl)-1-methyl-1H-pyrazole-5-carboxylic acid] the same measures were 275 nM, 59 nM and 41 nM.
For the compound `COC(=O)c1cnn(-c2ccc(NC(=O)c3cnn(-c4cccc5ncccc45)c3C(F)(F)F)cc2Cl)n1` [Cpd 256, methyl 2-(2-chloro-4-(1-(quinolin-5-yl)-5-(trifluoromethyl)-1H-pyrazole-4-carboxamido)phenyl)-2H-1,2,3-triazole-4-carboxylate], the IC50 amounted to 240 nM in assay [1], 257 nM in assay [2] and 240 nM in assay [3].
As for `Cn1ncc2ccnc(-n3ncc(C(=O)Nc4cnc(-n5nccn5)c(C#N)c4)c3C(F)(F)F)c21` [Cpd 259, N-(5-cyano-6-(2H-1,2,3-triazol-2-yl)pyridin-3-yl)-1-(1-methyl-1H-pyrazolo[3,4-c]pyridin-7-yl)-5-(trifluoromethyl)-1H-pyrazole-4-carboxamide], the IC50 in assay [1] was 219 nM; in assay [2], 145 nM; in assay [3], 151 nM.
For `N#Cc1cc(NC(=O)c2cnn(-c3ccnc4cn[nH]c34)c2C(F)(F)F)cnc1-n1nccn1` [Cpd 262, N-(5-cyano-6-(2H-1,2,3-triazol-2-yl)pyridin-3-yl)-1-(1H-pyrazolo[4,3-b]pyridin-7-yl)-5-(trifluoromethyl)-1H-pyrazole-4-carboxamide] the same measures were 191 nM, 182 nM and 129 nM.
Regarding `Cn1nc(-n2ncc(C(=O)Nc3cnc(-n4nccn4)c(C#N)c3)c2C(F)(F)F)c2ccccc21` [Cpd 266, N-(5-cyano-6-(2H-1,2,3-triazol-2-yl)pyridin-3-yl)-1-(1-methyl-1H-indazol-3-yl)-5-(trifluoromethyl)-1H-pyrazole-4-carboxamide], the IC50 is 158 nM in assay [1], 186 nM in assay [2] and 178 nM in assay [3].
With `N#Cc1cc(NC(=O)c2cnn(-c3ccnc4cccnc34)c2C(F)(F)F)cnc1-n1nccn1` [Cpd 269, N-(5-cyano-6-(2H-1,2,3-triazol-2-yl)pyridin-3-yl)-1-(1,5-naphthyridin-4-yl)-5-(trifluoromethyl)-1H-pyrazole-4-carboxamide], the IC50 in assay [1] is 155 nM; in assay [2], 83 nM; in assay [3], 85 nM.
On to `CN(C)Cc1cnnn1-c1ncc(NC(=O)c2cnn(-c3cccc4ncccc34)c2C(F)(F)F)cc1Cl` [Cpd 270, N-(5-chloro-6-(5-((dimethylamino)methyl)-1H-1,2,3-triazol-1-yl)pyridin-3-yl)-1-(quinolin-5-yl)-5-(trifluoromethyl)-1H-pyrazole-4-carboxamide], for which the IC50 worked out at 145 nM in assay [1], 170 nM in assay [2] and 98 nM in assay [3].
In the same order, the values of `Cc1nc2cccc(-n3ncc(C(=O)Nc4cnc(-n5nccn5)c(C#N)c4)c3C(F)(F)F)c2o1` [Cpd 271, N-(5-cyano-6-(2H-1,2,3-triazol-2-yl)pyridin-3-yl)-1-(2-methylbenzo[d]oxazol-7-yl)-5-(trifluoromethyl)-1H-pyrazole-4-carboxamide] are 145 nM, 112 nM and 95 nM.
In the same order, the values of `NCc1cnn(-c2ncc(NC(=O)c3cnn(-c4cccc5ncccc45)c3C(F)(F)F)cc2Cl)n1` [Cpd 272, N-(6-(4-(aminomethyl)-2H-1,2,3-triazol-2-yl)-5-chloropyridin-3-yl)-1-(quinolin-5-yl)-5-(trifluoromethyl)-1H-pyrazole-4-carboxamide] are 145 nM, 126 nM and 87 nM.
